Test results from patent US20250282760A1 (Merck Sharp & Dohme LLC, priority 2022, published 2025).

Biological target: T1, human OX2R (Homo sapiens, UniProt O43614)
T1 construct: expressed in transfected cells; host or cells: Chinese hamster ovary (CHO) cells, kept under G418 selection
T1 sequence (O43614 1-444): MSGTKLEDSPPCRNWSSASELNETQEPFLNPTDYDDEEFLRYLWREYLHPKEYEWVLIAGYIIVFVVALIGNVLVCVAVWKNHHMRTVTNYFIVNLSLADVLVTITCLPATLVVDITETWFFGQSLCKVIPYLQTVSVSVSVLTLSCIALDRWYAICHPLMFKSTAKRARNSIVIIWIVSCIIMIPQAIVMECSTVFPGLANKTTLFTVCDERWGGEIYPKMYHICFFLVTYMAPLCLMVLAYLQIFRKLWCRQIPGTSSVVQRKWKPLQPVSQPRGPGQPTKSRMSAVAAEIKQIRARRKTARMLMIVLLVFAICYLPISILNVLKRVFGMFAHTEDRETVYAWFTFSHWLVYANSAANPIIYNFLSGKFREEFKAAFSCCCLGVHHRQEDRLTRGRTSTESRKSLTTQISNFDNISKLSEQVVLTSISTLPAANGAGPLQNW
Test: IPOne (IP-1 accumulation) assay of orexin receptor agonist activity in CHO cells expressing human OX2R
Format: cell-based
Details: for IC50: CHO cells expressing human OX2R, IP-One assay, 2 hours incubation, four parameter logistic fit, read-out: hOX2R_IP IC50; for Emax: CHO, percent activity at maximum tested concentration, relative to reference compound at 1 uM (100% activity) for human OX2R
Excerpt: The utility of the compounds in accordance with the present invention as orexin receptor OX1R and/or OX2R agonists may be readily determined without undue experimentation by methodology well known in the art. Both the OX1R and/or OX2R G-coupled protein receptors (GPCRs) couple through the Gαq signaling pathway, which ultimately promotes calcium mobilization via inositol triphosphate (IP3) production. […] The utility of the compounds in accordance with the present invention as orexin receptor OX1R and/or OX2R agonists may be determined utilizing this assay.
In a typical experiment, the OX1 and OX2 receptor agonist activity is determined in accordance with the following general experimental method. Chinese hamster ovary (CHO) cells expressing human OX1R and/or the human OX2R were grown in Iscove's modified DMEM containing glutaMAX™, 1% G418, 100 U/mL penicillin, 100 μg/mL streptomycin and 10% heat-inactivated qualified fetal bovine serum (FBS). […] During this incubation, IP-one detection reagents were prepared (38:1:1 lysis buffer:D2:AB-cryptate reagents).
For each compound, data were fit to a four parameter logistic fit (ActivityBase software) and the EC50 was reported as the inflection point of the resulting curve. Percent effect for each test compound was determined as the percentage of sample raw value/mean max effect, where the mean max effect was derived from the mean raw value of 32 control wells per assay plate (using Orexin A (cat #003-30) at 1 μM for human OX1R and a reference compound at 1 uM with 100% activity previously established by comparison to Orexin A for human OX2R). The intrinsic orexin receptor agonist activity of a compound which may be used in the present invention may be determined by these assays.

| Structure (SMILES) | IC50 | Emax |
| --- | --- | --- |
| CC(C)C(=O)N1[C@H](C)CN(S(=O)(=O)c2ccccc2)C[C@@H]1C(=O)NCc1ccc(-c2ccccc2F)cc1 (relative stereo) [Example 21, cis-N-((2′-fluoro-[1,1′-biphenyl]-4-yl)methyl)-1-isobutyryl-6-methyl-4-(phenylsulfonyl)piperazine-2-carboxamide] | 92.2 nM | 90.7% |
| CC(C)C(=O)N1[C@H](C)CN(S(=O)(=O)c2ccccc2)C[C@@H]1C(=O)NCc1ccc(-n2nccn2)cc1 (relative stereo) [Example 19-7, cis-N-(4-(2H-1,2,3-triazol-2-yl)benzyl)-1-isobutyryl-6-methyl-4-(phenylsulfonyl)piperazine-2-carboxamide] | 82.2 nM | 101% |
| O=C(NCc1ccc2ccccc2c1)C1CN(S(=O)(=O)c2ccccc2)CCN1C(=O)c1ccco1 (stereo not drawn) [Example 10-9, 1-(furan-2-carbonyl)-N-(naphthalen-2-ylmethyl)-4-(phenylsulfonyl)piperazine-2-carboxamide] | 6170 nM | 93.8% |
| O=C(NCc1ccc2ccccc2c1)C1CN(S(=O)(=O)c2ccccc2)CCN1C(=O)C1CCC1 (stereo not drawn) [Example 10-6, 1-(cyclobutanecarbonyl)-N-(naphthalen-2-ylmethyl)-4-(phenylsulfonyl)piperazine-2-carboxamide] | 5000 nM | 96.8% |
| CC(C)C(=O)N1[C@H](C)CN(S(=O)(=O)c2ccccc2)C[C@@H]1C(=O)NCc1ccc(-c2nccs2)cc1 (relative stereo) [Example 19-6, cis-1-isobutyryl-6-methyl-4-(phenylsulfonyl)-N-(4-(thiazol-2-yl)benzyl)piperazine-2-carboxamide] | 81.3 nM | 98.7% |
| CCOc1ccc(CNC(=O)[C@H]2CN(S(=O)(=O)c3ccccc3)C[C@@H](C)N2C(=O)C(C)C)cc1 (relative stereo) [Example 19-11, cis-N-(4-ethoxybenzyl)-1-isobutyryl-6-methyl-4-(phenylsulfonyl)piperazine-2-carboxamide] | 264 nM | 93.1% |
| CC(C)C(=O)N1[C@@H](C)CN(S(=O)(=O)c2ccccc2)C[C@H]1C(=O)NCc1ccc(OC(C)(F)F)cc1 (single isomer, unassigned) [Example 19-4-2] | 9100 nM | 95.6% |
| CC(C)C(=O)N1[C@H](C)CN(S(=O)(=O)c2ccccc2)C[C@@H]1C(=O)NCc1ccc(-c2ccco2)c(F)c1 (relative stereo) [Example 26, cis-N-(3-fluoro-4-(furan-2-yl)benzyl)-1-isobutyryl-6-methyl-4-(phenylsulfonyl)piperazine-2-carboxamide] | 11.2 nM | 100% |
| CC(C)C(=O)N1[C@H](C)CN(S(=O)(=O)c2ccccc2)C[C@@H]1C(=O)NCc1ccc(OC(C)(F)F)cc1 (single isomer, unassigned) [Example 19-4-1] | 22.7 nM | 100% |
| CCC(C)C(=O)N1CCN(S(=O)(=O)c2ccccc2)CC1C(=O)NCc1ccc2ccccc2c1 (stereo not drawn) [Example 10-1, 1-(2-methylbutanoyl)-N-(naphthalen-2-ylmethyl)-4-(phenylsulfonyl)piperazine-2-carboxamide] | 4310 nM | 101% |
| Cc1ccsc1C(=O)N1CCN(S(=O)(=O)c2ccccc2)CC1C(=O)NCc1ccc2ccccc2c1 (stereo not drawn) [Example 10-12, 1-(3-methylthiophene-2-carbonyl)-N-(naphthalen-2-ylmethyl)-4-(phenylsulfonyl)piperazine-2-carboxamide] | 2430 nM | 89.4% |
| CC(C)C(=O)N1[C@H](C)CN(S(=O)(=O)c2ccccc2)C[C@@H]1C(=O)NCc1ccc(-c2ncco2)cc1 (relative stereo) [Example 19-8, cis-1-isobutyryl-6-methyl-N-(4-(oxazol-2-yl)benzyl)-4-(phenylsulfonyl)piperazine-2-carboxamide] | 146 nM | 99.5% |

The next lines start with the values.

| IC50 | Emax | Structure (SMILES) |
| --- | --- | --- |
| 27.9 nM | 94.2% | COc1cc(-c2ccco2)ccc1CNC(=O)[C@H]1CN(S(=O)(=O)c2ccccc2)C[C@@H](C)N1C(=O)C(C)C (relative stereo) [Example 47-4, cis-N-(4-(furan-2-yl)-2-methoxybenzyl)-1-isobutyryl-6-methyl-4-(phenylsulfonyl)piperazine-2-carboxamide] |
| 2600 nM | 99.7% | COc1ccc(S(=O)(=O)N2CCN(C(=O)c3cccs3)C(C(=O)NCc3ccc4ccccc4c3)C2)cc1 (stereo not drawn) [Example 89-7, 4-[(4-methoxyphenyl)sulfonyl]-N-[(naphthalen-2-yl)methyl]-1-(thiophene-2-carbonyl)piperazine-2-carboxamide] |
| 93.9 nM | 89.9% | CC(C)C(=O)N1C(C(=O)NCc2ccc(-c3ccco3)cc2)CN(S(=O)(=O)c2ccccc2)CC1(C)C (stereo not drawn) [Example 83, N-(4-(furan-2-yl)benzyl)-1-isobutyryl-6,6-dimethyl-4-(phenylsulfonyl)piperazine-2-carboxamide] |
| 6570 nM | 82.7% | Cc1ccccc1S(=O)(=O)N1CCN(C(=O)c2cccs2)C(C(=O)NCc2ccc3ccccc3c2)C1 (stereo not drawn) [Example 89-3, 4-[(2-methylphenyl)sulfonyl]-N-[(naphthalen-2-yl)methyl]-1-(thiophene-2-carbonyl)piperazine-2-carboxamide] |
| 2670 nM | 92% | Cc1cccc(S(=O)(=O)N2CCN(C(=O)c3cccs3)C(C(=O)NCc3ccc4ccccc4c3)C2)c1 (stereo not drawn) [Example 89-2, 4-[(3-methylphenyl)sulfonyl]-N-[(naphthalen-2-yl)methyl]-1-(thiophene-2-carbonyl)piperazine-2-carboxamide] |
| 6280 nM | 97.8% | CC(C)C(=O)N1[C@H](C)CN(S(=O)(=O)c2ccccc2)C[C@@H]1C(=O)NCc1ncc(-c2ccco2)cn1 (single isomer, unassigned) [Example 39] |
| 19200 nM | 38.4% | COc1cc(CNC(=O)[C@H]2CN(S(=O)(=O)c3ccccc3)C[C@@H](C)N2C(=O)C(C)C)ccc1-c1ccco1 (relative stereo) [Example 47-1, cis-N-(4-(furan-2-yl)-3-methoxybenzyl)-1-isobutyryl-6-methyl-4-(phenylsulfonyl)piperazine-2-carboxamide] |
| 10.9 nM | 99.5% | CCc1cc(-c2ccco2)ccc1CNC(=O)[C@H]1CN(S(=O)(=O)c2ccccc2)C[C@@H](C)N1C(=O)C(C)C (relative stereo) [Example 47-6, cis-N-(2-ethyl-4-(furan-2-yl)benzyl)-1-isobutyryl-6-methyl-4-(phenylsulfonyl)piperazine-2-carboxamide] |
| 2230 nM | 97.9% | CC(C)C(=O)N1[C@H](C)CN(S(=O)(=O)c2ccccc2)C[C@@H]1C(=O)NCc1ccc(CC(C)(F)F)cc1 (single isomer, unassigned) [Example 66] |
| 100 nM | 93.2% | CCC(F)(F)Oc1ccc(CNC(=O)[C@H]2CN(S(=O)(=O)c3ccccc3)C[C@@H](C)N2C(=O)C(C)C)cc1 (single isomer, unassigned) [Example 61, cis-N-(4-(1,1-difluoropropoxy)benzyl)-1-isobutyryl-6-methyl-4-(phenylsulfonyl)piperazine-2-carboxamide] |
| 6090 nM | 67.5% | N#Cc1cccc(S(=O)(=O)N2CCN(C(=O)c3cccs3)C(C(=O)NCc3ccc4ccccc4c3)C2)c1 (stereo not drawn) [Example 89-6, 4-[(3-cyanophenyl)sulfonyl]-N-[(naphthalen-2-yl)methyl]-1-(thiophene-2-carbonyl)piperazine-2-carboxamide] |
| 2670 nM | 97.1% | CC(C)C(=O)N1[C@@H](C(=O)NCc2ccc(-c3ccco3)cc2)CN(S(=O)(=O)c2ccccc2)C[C@H]1C(F)(F)F (relative stereo) [Example 78, cis-N-(4-(furan-2-yl)benzyl)-1-isobutyryl-4-(phenylsulfonyl)-6-(trifluoromethyl)piperazine-2-carboxamide] |
